Test results from US20240269308A1, “PRODRUGS OF TOPOISOMERASE I INHIBITOR FOR ADC CONJUGATIONS AND METHODS OF USE THEREOF” (priority 2022, published 2024).
Like-named read-outs stand apart in the source and are kept apart here.

How the values were obtained:
[1] = M3385 metabolism in human liver S9 without cofactors NADPH and UDPGA; format: in vitro ADME; details: 240 min
Text: (§1) Briefly, hepatocytes are complete liver cells, containing various first-phase and second-phase enzymes that can mediate various metabolic reactions; therefore, it is a better in vitro model to test metabolites. Liver S9 is the supernatant obtained by grinding and centrifuging the liver cells. The enzymes content is lower compared to Hepatocytes. It mainly contains CYP enzymes and some biphasic enzymes (but no biphasic coenzyme), so additional coenzyme (NADPH and UDPGA, etc.) is needed to mediate the biphasic reaction.
(§2) Assay buffer: 100 mM potassium phosphate buffer (K+/Mg2+ buffer, pH7.4):
(§3) The initial stock of liver S9 was diluted in K+/Mg^2+ buffer, pH 7.4 from 20 mg/ml to 2× Liver S9 (2 mg/mL) with alamethicin (50 μg/mL):
(§4) 2×LS9/compound M3385 solution was prepared.
(§5) Time zero/T0: 199 μL 2 mg/mL liver S9 solution; 100 μL of 8 mM NADPH solution; 100 μL of 20 mM UDPGA solution; and 1200 μL of ACN were added, vortexed at 1000 rpm for 5 min, then 1 μL of 4 mM test compound solution was added.
(§6) T240-without a co-factor: 199 μL 2 mg/mL liver S9 solution and 200 μL of buffer were added. The T240-w/o sample was prewarmed at 37° C. for 5 min and 1 μL of 4 mM test compound solution was added. After 240 min incubation, 1200 μL of ACN was added and then vortexed at 1000 rpm for 5 min.
(§7) Protein precipitation: quenched samples were centrifuged at 14000 rpm for 5 min.
(§8) Sample preparation: an aliquot of 1200 μL of the supernatant was evaporated under N2 stream until dry. Dried extracts were reconstituted with 200 μL of 25% aqueous ACN, vortexed for 2 minutes, centrifuged at 14000 rpm for 5 min, and then 3 μL of reconstituted supernatant were injected for LC-UV-MS analysis.

[2] = M3385 metabolism in human liver S9 with NADPH and UDPGA; format: in vitro ADME; details: M3385 incubated in human liver S9 with NADPH and UDPGA, 240 min; single peak (parent or metabolite)
Text: as §1
The metabolism of model compound M3385 was evaluated in human liver S9 with NADPH and UDPGA as follows:
as §2, §3, §4, §5
as §6, with “T240 with” for “T240-without”, “solution; 100” for “solution and 200”, “8 mM NADPH solution; and 100 μL of 20 mM UDPGA solution” for “buffer”, “T240” for “T240-w/o”
as §7, §8

in vitro = details: human, plasma
JIMT-1 = experiment: in vitro cell killing activity, JIMT-1 cells (CellTiter Glo viability); format: cell-based; details: JIMT-1 cells; for IC50: Homo sapiens, read-out: JIMT-1 IC50
Experimental: (§9) Serial dilutions of free drug in 100% DMSO (1:4 10 pts starting from 100 uM) were prepared. Serially diluted payload was transferred into Opti-Mem with 0.1% BSA (10 uL into 990 uL media). Serial dilutions of ADCs/isotype controls at 1:4 in Opti-Mem with 0.1% BSA (starting from 5×1000 nM) were prepared. 20ul assay media diluted ADC/isotype conjugates as well as free drug were transferred to above cells. The plates were incubated at 37° C., 5% CO2 for 6 days. Plates were developed by adding 100ul CellTiter Glo 2.0. RT 5-10 min. Plates were read with Envision plate reader. Data was analyzed using Prism. Only inner 60 well are used for the assay. The edge wells were filled with media to prevent dry out.

NCI-H1975 cells = experiment: anti-Her2 viability assay, NCI-H1975 cells (target negative); format: cell-based; details: NCI-H1975 target negative cells, 6 days; for IC50: Homo sapiens, 144 h, read-out: H1975 IC50
Experimental: (§10) The anti-Her2 viability assay protocol is following.
(§11) 0.1% BSA was added to the Opti-MEM reduced serum media [Gibco, cat #31985-070]. This assay media was used for the dilution of ADC and free drug.
(§12) Cells were seeded in their growth media into 96 well plates (Thermo #136101) one day prior to adding ADCs: 1000/well SKBR3 cells in 80 uL media (target positive cells), 1000/well NCI-N87 cells in 80 uL media (target positive cells), 1000/well Calu-3 in 80 uL media (target positive cells), and 800/well NCI-H1975 cells in 80ul media (target negative cells).
as §9

SK-BR-3 cells = experiment: SKBR3 cell-based anti-proliferation / viability assay (CellTiter-Glo); set-up: species or system human; details: for EC50: Homo sapiens, SK-BR-3, read-out: SKBR3 EC50; for SKBR3 % Kill: SKBR3 target positive cells, 6 days
Experimental: as §10, §11, §12, §9
The cell line used in the anti-proliferation assays was SK-BR-3, a human breast, adenocarcinoma (pleural effusion) cell line; The cells were grown in McCoy's 5a Medium+10% FBS. To run the assay, the cells (80 μl, 1000 cells) were added to each well in a 96-well plate and incubated for 24 hours at 37° C. with CO2. Next, the cells were treated with test compounds (20 μl) at various concentrations in appropriate cell culture medium (total volume, 0.1 mL). The control wells contain cells and the medium but lack the test compounds. The plates were incubated for 144 hours at 37° C. with CO2. CTG reagent was then added to the wells (100 μl). After the plates were shaken for 10 min and then incubated for 10 min at room temperature, paste the clear bottom with white back seal and record luminescence with Envision. The inhibition % was calculated according to the following equation: inhibition %=[1-(assay-blank)/(control-blank)]×100.

Calu-3 = experiment: anti-Her2 viability assay, Calu-3 cells (target positive); format: cell-based; details: Calu-3 target positive cells, 6 days; for IC50: Homo sapiens, 144 h, read-out: Calu-3 IC50
Experimental: as §10, §11, §12, §9

[3] = Mouse whole blood stability test; format: in vitro ADME
Experimental: In vitro stability of Linker-Prodrug in mouse whole blood Scheme 15. Metabolism of LP1 (M2980) in whole blood.
Stock solution of test compound was provided in 100% DMSO. The stock solution for each compound was diluted into 500 μM with mixture of 50% acetonitrile, then diluted into mouse blood to achieve a final concentration of 1.0 μM. 1.0 μM of test compound in duplicate was incubated in blood at 37° C. Aliquots of 50 uL sample was collected at 0, 15, 30, 60, 120, 240, 480 min, and 24 hours. Reactions were terminated at various time points (0, 15, 30, 60, 120, 240, 480 min, 24 hours) by adding 200 μL of ice-cold acetonitrile containing internal standard with 1% formic acid and then ultrasound for 30 seconds. Plate was centrifuged (4000 rpm, 15 min). 50 μL of supernatants were transferred into a daughter plate containing 200 μL of H2O in each well. The samples were mixed well and analyzed with UPLC-MS/MS.
A Waters liquid chromatographic system was used. Detection was performed on AP14000 Q-Trap and AP15500 mass spectrometer equipped with TurbolonSpray (ESI) Interface (Applied Biosystems, Concord, Ontario, Canada). Analyst 1.5 and 1.6.2 software packages (Applied Biosystems) were used to control the LC-MS/MS system, as well as for data acquisition and processing.
Chromatographic separation was achieved on the Wates BEH C18 column (50*2.1 mm ID, 1.7 μm). The column temperature was maintained at ambient temperature (25° C.). The flow rate was maintained at 0.6 mL/min and the following mobile phases were used: water (0.1% formic acid, v/v) (phase A) and acetonitrile (0.1% formic acid, v/v) (phase B).
Test compounds (1.0 μM) were incubated in blood at 37° C. in duplicate. Aliquots of 50 uL sample was collected at 0, 15, 30, 60, 120, 240, 480 min, and 24 hours. Reactions were terminated at various time points (0, 15, 30, 60, 120, 240, 480 min, 24 hours by adding 200 μL of ice-cold acetonitrile containing internal standard with 1% formic acid, then ultrasound for 30 seconds. The plate was centrifuged (4000 rpm, 15 min). 50 μL of supernatants were transferred into a daughter plate containing 200 μL of water in each well. Samples were mixed well and analyzed with UPLC-MS/MS.
The % was calculated based on initial 1 uM as 100% and the standard concentration curve.

NCI-N87 cells = experiment: anti-Her2 viability assay, NCI-N87 cells (target positive); format: cell-based; details: NCI-N87 target positive cells, 6 days; for IC50: Homo sapiens, 144 h, read-out: N87 IC50
Experimental: as §10, §11, §12, §9

[4] = whole blood, mouse blood, read-out: Mouse blood stability T1/2 (converted)

Structure (SMILES)	half-life (in vitro)	IC50 (JIMT-1)	JIMT-1 % Kill (JIMT-1)	IC50 (NCI-H1975 cells)	H1975 % Kill (NCI-H1975 cells)	EC50 (SK-BR-3 cells)	SKBR3 % Kill (SK-BR-3 cells)	Human plasma stability % Remaining at 24 h	Calu-3 % Kill (Calu-3)	IC50 (Calu-3)	half-life at 1 μM ([3]; mouse, blood)	Mouse blood stability % Remaining at 24 h ([3]; mouse, blood, 1 μM)	IC50 (NCI-N87 cells)	N87 % Kill (NCI-N87 cells)	half-life (Human plasma stability)	Human plasma stability % Remaining at 24 h (Human plasma stability)	Mouse blood stability % Remaining at 24 h ([3]; mouse blood)	half-life at 1 μM [3, 4]	further results
CC[C@@](O)(C(=O)O)c1cc2n(c(=O)c1CO)Cc1c-2nc2cc(F)c(C)c3c2c1[C@@H](NC(=O)COCNC(=O)CN)CC3 [MP1R]																			Relative UV Abundance* (%) ([1]; M3385 incubated in human liver S9 without NADPH and UDPGA, single peak (parent or metabolite)): 0.38%; Relative UV Abundance* (%) [2]: 0.29%
CC[C@@]1(O)C(=O)OCc2c1cc1n(c2=O)Cc2c-1nc1cc(F)c(C)c3c1c2[C@@H](NC(=O)COCNC(=O)CN)CC3 [MP1]																			Relative UV Abundance* (%), group total ([1]; human, 10 μM, pH 7.4): 4.93%
CC[C@@]1(O)C(=O)OCc2c1cc1n(c2=O)Cc2c-1nc1cc(F)c(C)c3c1c2[C@@H](NC(=O)COCNC(=O)[C@@H](N)CO)CC3 [P2, (2S)-2-amino-N-[({[(10S,23S)-10-ethyl-18-fluoro-10-hydroxy-19-methyl-5,9-dioxo-8-oxa-4,15-diazahexacyclo[14.7.1.0^2,14.0^4,13.0^6,11.0^20,24]tetracosa-1,6(11),12,14,16,18,20(24)-heptaen-23-yl]carbamoyl}methoxy)methyl]-3-hydroxypropanamide]	65.4 h	0.0238 µM	92.7%	0.0199 µM	98.0%	0.00589 µM	97.0%	80.4%	93.2%	0.00568 µM	2.5 h	34.1%	0.00893 µM	98.4%					
CC[C@@]1(O)C(=O)OCc2c1cc1n(c2=O)Cc2c-1nc1cc(F)c(C)c3c1c2[C@@H](NC(=O)COCNC(=O)[C@@H](N)CCC(N)=O)CC3 [P3, (2S)-2-amino-N-[({[(10S,23S)-10-ethyl-18-fluoro-10-hydroxy-19-methyl-5,9-dioxo-8-oxa-4,15-diazahexacyclo[14.7.1.0^2,14.0^4,13.0^6,11.0^20,24]tetracosa-1,6(11),12,14,16,18,20(24)-heptaen-23-yl]carbamoyl}methoxy)methyl]pentanediamide]	24.1 h	0.0886 µM	81.3%	0.0545 µM	88.5%	0.0116 µM	94.3%	48.9%	90.7%	0.0159 µM	1 h	6.5%	0.0304 µM	95.5%					
CC[C@@]1(O)C(=O)OCc2c1cc1n(c2=O)Cc2c-1nc1cc(F)c(C)c3c1c2[C@@H](NC(=O)COCNC(=O)[C@@H](N)CCC(=O)O)CC3 [P4, (4S)-4-amino-4-{[({[(10S,23S)-10-ethyl-18-fluoro-10-hydroxy-19-methyl-5,9-dioxo-8-oxa-4,15-diazahexacyclo[14.7.1.0^2,14.0^4,13.0^6,11.0^20,24]tetracosa-1,6(11),12,14,16,18,20(24)-heptaen-23-yl]carbamoyl}methoxy)methyl]carbamoyl}butanoic acid]		0.0207 µM	92.0%	0.0241 µM	96.8%	0.00663 µM	96.6%		93.7%	0.00567 µM			0.00984 µM	97.7%	107 h	90.4%	66.1%	9.2 h	
CC[C@@]1(O)C(=O)OCc2c1cc1n(c2=O)Cc2c-1nc1cc(F)c(C)c3c1c2[C@@H](NC(=O)COCNC(=O)[C@@H](N)Cc1ccccc1)CC3 [P7, (2S)-2-amino-N-[({[(10S,23S)-10-ethyl-18-fluoro-10-hydroxy-19-methyl-5,9-dioxo-8-oxa-4,15-diazahexacyclo[14.7.1.0^2,14.0^4,13.0^6,11.0^20,24]tetracosa-1,6(11),12,14,16,18,20(24)-heptaen-23-yl]carbamoyl}methoxy)methyl]-3-phenylpropanamide]		0.0132 µM	93.4%	0.00896 µM	98.8%	0.00198 µM	97.0%		93.7%	0.00332 µM			0.00441 µM		24.4 h	51.3%	6.3%	0.2 h	
